From patent US12257251B2, “Use of FAK inhibitor in preparation of drug for treating tumors having NRAS mutation” (INXMED (NANJING) CO., LTD., priority 2019, dated 2025)

Experiments:
[1] = Body weight change (tolerability) in the KYSE-270 xenograft study; assay type: in vivo, mouse; conditions: for Change in median weight: BI853520 50 mg/Kg qd, day 13 versus day 1
Procedure: 1.7. Monitoring tumor growth and side effects: Tumor diameters were measured with calipers three times a week. The volume [mm^3] of each tumor was calculated according to the equation “tumor volume=length×diameter^2×π/6”. To monitor the side effects of the treatment, the mice were checked daily for abnormalities and their body weights were measured three times a week. For ethical reasons, animals with tumors larger than 1.5 cm in diameter, ulcerated tumors, or 20% body weight loss were euthanized.
The wilcoxon test was used for comparison. For body weight, the percent change relative to initial body weight on day 1 was used as the target variable for statistical analysis. The number of animals, and the median, minimum and maximum weight changes in each group were calculated.
One-sided test to compare all treatment groups with control group was performed for observing: • reduction in tumor volume (inhibition of tumor growth, efficacy parameter) and • reduction in weight changes (weight loss, tolerance parameters).
Within each subtopic, p-values for the efficacy parameter were compared and adjusted for multiple times according to Bonferroni-Holm. The p-value for the tolerance parameter was kept constant so as not to overlook possible side effects. Significance level was fixed at α=5%. A p-value (adjusted) of less than 0.05 was considered to show a statistically significant difference between groups, and 0.05≤p-value<0.10 was considered as an indicative difference. Statistical evaluations were performed using the SAS software package version 9.4 (SAS Institute Inc., Cary NC, USA).

[2] = test system: HT-1080 cells carrying NRAS, CDKN2A and IDH1 gene mutations; test: Mouse model of human fibrosarcoma (cell line HT-1080), subcutaneous tumors: tumor growth; assay type: in vivo; conditions: for Median tumor volume: day 13; for TGI: day 1 to day 13, from median tumor volumes; for Tumor shrinkage [X/7]: number of animals of 7 with tumor shrinkage
Procedure: • 1. Materials and Method: • 1.1. Design of Research • Treatment began when the median tumor volume was between 70-130 mm^3. • 10 mice in the control group, and 7 mice in the treatment group. • Oral gavage once daily. • Control: 0.5% hydroxyethyl cellulose • BI 853520: 50 mg/kg, 25 mg/kg, 12.5 mg/kg, 6 mg/kg, • Tumor volume was measured 3 times a week and body weight was monitored daily. • Evaluation of treatment outcome was based on absolute volume of individual tumors. • Tolerability was assessed based on changes in body weight.
BI853520: synthesized according to the method in the patent WO2010058032. The dry powder was suspended in 0.5% hydroxyethyl cellulose to obtain the desired concentration for each assay. The pH of this formulation was 3.5.
HT-1080 cells: HT-1080 cells carrying NRAS, CDKN2A and IDH1 gene mutations were obtained from ATCC (CRL-121). Cells were grown in T175 tissue culture flasks with DMEM+Glutamax supplemented with 10% heat-inactivated fetal bovine serum as medium. Cells were cultured at 37° C. and 5% CO2 in humidified air.
Mice: Athymic female BomTac, approximately 6-week-old NMRI-Foxn1^nu mice were purchased from Taconic, Denmark. After arriving in the animal room, mice were acclimated to the new environment for at least 3 days before being used for assay. The animals were housed under standard conditions (temperature 21.5±1.5° C. and 55±10% humidity) with 5 mice in each group. A standard diet and autoclaved tap water were provided for ad libitum feeding. A Datamars® T-IS 8010 FDX-B transponder implanted subcutaneously in the neck region and a LabMax® II fixed reader were used to identify each mouse.
To establish subcutaneous tumors, HT-1080 cells were harvested by trypsinization, centrifuged, washed and suspended in ice-cold PBS+1×10^8 cells/ml. Then 100 μl of cell suspension containing 1×10^7 cells was injected subcutaneously into the right flank of nude mice (1 site per mouse). When tumors were established and reached a diameter of 5-8 mm (7 days after cell injection), mice were randomly assigned to the treatment group and the control group.
BI853520 was suspended in 0.5% hydroxyethyl cellulose, which was administered intragastrically through gavage needle every day, and the dosage was 10 mL/Kg.
Tumor diameters were measured with calipers three times a week (Monday, Wednesday, and Friday). The volume of each tumor [in mm^3] was calculated according to the equation, “tumor volume=length×diameter^2×π/6”. To monitor the side effects of the treatment, the mice were checked daily for abnormalities and their body weights were measured daily. Animals were sacrificed at the end of the study (approximately two weeks after the start of treatment). During the study, animals with tumor necrosis or tumors larger than 2000 mm^3 were sacrificed ahead of schedule for ethical reasons.
At the end of the assay on day 13, statistical evaluation of tumor volume and body weight parameters was performed. Absolute tumor volume and percent change in body weight (referenced to initial weight on day 1) were used. A nonparametric approach was used, and the number of observations, median, minimum and maximum values were calculated. For a quick overview of possible treatment effects, the median tumor volume for each treatment group T and the median tumor volume for the control group C were used to calculate the TGI from day 1 to day d: TGI=100×[(Cd−C1)−(Td−T1)]/(Cd−C1) • wherein, C1, T1=median tumor volume in control and treatment groups at the start of the assay (day 1). • Cd, Td=median tumor volume in control and treatment groups at the end of the assay (day 13).
Each dose of test compound was compared to the control group using a one-sided descending wilcoxon test, taking reduction in tumor volume as a treatment effect and weight loss as a side effect. […]

[3] = in vivo

In the case of `COc1cc(C(=O)NC2CCN(C)CC2)c(F)cc1Nc1ncc(C(F)(F)F)c(Oc2cccc3c2C(=O)N(C)C3)n1` [BI853520], the “Change in median weight” value ([1]; 50 mg/kg) is reported as “+2.8%”, the “Change in median weight” value ([1]; listed as BI 853520, 50 mg/kg) is reported as 2.8% and the “Tolerability (in words)” value ([1]; BI 853520 50 mg/kg) is reported as “well tolerated”. For the same molecule, the Median tumor volume ([2]; 6 mg/kg qd oral gavage) was 322 mm^3, the TGI ([2]; 6 mg/kg qd) was 70% and the “Tumor shrinkage [X/7]” value ([2]; 6 mg/kg qd) was 1 X/7. For the same molecule, the Median tumor volume ([2]; 12.5 mg/kg qd oral gavage) was 149 mm^3, the TGI ([2]; 12.5 mg/kg qd) was 94% and the “Tumor shrinkage [X/7]” value ([2]; 12.5 mg/kg qd) was 2 X/7. For the same molecule, the Median tumor volume ([2]; 25 mg/kg qd oral gavage) was 15 mm^3, the TGI ([2]; 25 mg/kg qd) was 113% and the “Tumor shrinkage [X/7]” value ([2]; 25 mg/kg qd) was 6 X/7. The TGI ([2]; 50 mg/kg qd) was 107%, the “Antitumor activity (in words)” value ([2]; all dose levels (6 to 50 mg/kg qd)) was “statistically significant antitumor activity” and the “Regression (in words)” value ([2]; all the treatment groups (6 to 50 mg/kg qd)) was “regression was observed”. For the same molecule, the “Highest daily dose without limiting toxicity” value [3] was 100 mg/kg.
